# Measured values from patent US20230256092A1, “COMBINED USE OF ANTI-CCR8 ANTIBODY AND CHEMOTHERAPEUTIC AGENT” (Shionogi & Co., Ltd., priority 2020, published 2023).
# Tests used:
# Type in all cases: in vivo, mouse
# [1] = system: colon cancer-derived CT26 cells; experiment: Example 12: hCCR8-KI (KI/KI) mice inoculated with CT26 cells, 5-FU combination; conditions: antibody 0.1 mg/kg iv day 5; 5-FU 30 mg/kg iv 3 hours later; single groups 8, 12, 15 days, combined from 8 days; Mann-Whitney U
# Procedure: The back of each hCCR8-KI (KI/KI) mouse (14 weeks old, female) prepared in Test Example 10 was intracutaneously inoculated with 3.5×10^5 colon cancer-derived CT26 cells (50 μL).
# To an anti-human CCR8 antibody single administration group, an anti-human CCR8 antibody (humanized 10A11 antibody (light chain variable region: IGKV4-1 N53Q+G29R (SEQ ID NO: 59)/heavy chain variable region: IGHV3-15 T94R (SEQ ID NO: 41)) was intravenously administered at 0.1 mg/kg body weight 5 days after tumor inoculation, and saline was intravenously administered 3 hours after the administration of the anti-human CCR8 antibody (N=8). To a 5-FU single administration group, a saline was intravenously administered 5 days after tumor inoculation, and 5-FU (trade name: 5-FU INJECTION 250 KYOWA, Kyowa Hakko Kirin Co. Ltd) was intravenously administered at 30 mg/kg body weight 3 hours after the administration of the saline (N=8). […] Tumor volumes were measured every 3 to 4 days from […] after tumor inoculation (a day before antibody administration). The tumor volume (mm^3) was measured in long diameter (mm)×short diameter (mm)×short diameter (mm)/2, and a significant difference test based on a Mann-Whitney U method (significance level: P<0.05) was conducted.
# [2] = system: colon cancer-derived Colon26 cells; experiment: Example 5: Balb/c mice inoculated with Colon26 cells, oxaliplatin or 5-FU combination; conditions: antibody 50 μg iv day 5; oxaliplatin 5 mg/kg or 5-FU 30 mg/kg iv 1 hour later; oxaliplatin and antibody single 4, 7, 10, 12, 14, 17 days; 5-FU single only 7 days; combinations from 10 days; Mann-Whitney U
# Procedure: The back of each Balb/c mouse (5 weeks old, female) was intracutaneously inoculated with 3.5×10^5 colon cancer-derived Colon26 cells (50 μL).
# To an anti-mouse CCR8 antibody single administration group, 50 μg (200 μL) of an anti-mouse CCR8 antibody (clone SA214G2, BioLegend, Inc.) was intravenously administered 5 days after tumor inoculation, and saline was intravenously administered at a volume of 10 ml/kg body weight 1 hour after the administration of the anti-mouse CCR8 antibody (N=10).
# To an oxaliplatin single administration group, 50 μg (200 μL) of an isotype control antibody was intravenously administered 5 days after tumor inoculation, and oxaliplatin (trade name: ELPLAT, Yakult Honsha Company, Limited) at 5 mg/kg body weight was intravenously administered at a volume of 10 mL/kg body weight 1 hour after the administration of the isotype control antibody (N=10). […]
# Tumor volumes were measured every 2 to 3 days from 4 days after tumor inoculation (a day before antibody administration). The tumor volume (mm^3) was measured in long diameter (mm)×short diameter (mm)×short diameter (mm)/2, and a significant difference test based on a Mann-Whitney U method (significance level: P<0.05) was conducted.
# [3] = system: colon cancer-derived Colon26 cells; experiment: Example 6: hCCR8-KI (KI/KI) mice inoculated with Colon26 cells, oxaliplatin combination; conditions: antibody 15 mg/kg iv day 5; oxaliplatin 5 mg/kg iv 3 hours later; single groups 4, 7, 10, 12, 14, 17, 18 days, combined from 7 days; Mann-Whitney U
# Procedure: The back of each hCCR8-KI (KI/KI) mouse (12 weeks old, female) prepared in Test Example 10 was intracutaneously inoculated with 3.5×10^5 colon cancer-derived Colon26 cells (50 uL).
# To an anti-human CCR8 antibody single administration group, an anti-human CCR8 antibody (humanized 10A11 antibody (light chain variable region: IGKV4-1 N53Q+G29R (SEQ ID NO: 59)/heavy chain variable region: IGHV3-15 T94R (SEQ ID NO: 41))) at 15 mg/kg body weight was intravenously administered 5 days after tumor inoculation, and saline was intravenously administered 3 hours after the administration of the anti-human CCR8 antibody (N=10). To an oxaliplatin single administration group, saline was intravenously administered 5 days after tumor inoculation, and oxaliplatin (trade name: ELPLAT, Yakult Honsha Company, Limited) at 5 mg/kg body weight was intravenously administered 3 hours after the administration of the saline (N=10). […] Tumor volumes were measured every 1 to 3 days from 4 days after tumor inoculation (a day before antibody administration). The tumor volume (mm^3) was measured in long diameter (mm)×short diameter (mm)×short diameter (mm)/2, and a significant difference test based on a Mann-Whitney U method (significance level: P<0.05) was conducted.
# [4] = system: colon cancer-derived Colon26 cells; experiment: Example 11: hCCR8-KI (KI/KI) mice inoculated with Colon26 cells, oxaliplatin combination (Part 2); conditions: as Example 6; 2-7B part: oxaliplatin 10, 14, 17 days, antibody 14, 17 days; 19D7 part: oxaliplatin 10, 14 days, antibody 14 days; combinations from 10 days; Student's T one-sided
# Procedure: To an oxaliplatin single administration group, saline was intravenously administered 5 days after tumor inoculation, and oxaliplatin (trade name: ELPLAT, Yakult Honsha Company, Limited) at 5 mg/kg body weight was intravenously administered 3 hours after the administration of the saline (N=10). To an anti-mouse CCR8 antibody and oxaliplatin combined administration group, an anti-human CCR8 antibody at 15 mg/kg body weight was intravenously administered 5 days after tumor inoculation, and oxaliplatin at 5 mg/kg body weight was intravenously administered 3 hours after the administration of the anti-mouse CCR8 antibody (N=10). To a control group, saline was intravenously administered 5 days after tumor inoculation, and saline was intravenously administered 3 hours after the administration of the saline (N=10). […] Tumor volumes were measured every 1 to 3 days from 4 days after tumor inoculation (a day before antibody administration). The tumor volume (mm^3) was measured in long diameter (mm)×short diameter (mm)×short diameter (mm)/2, and a significant difference test based on a Mann-Whitney U method (significance level: P<0.05) was conducted. […]
SMILES,tumor volume as compared to the control group [1],tumor volume as compared to the control group [2],tumor volume as compared to the control group [3],tumor volume as compared to the control group [4]
"O=c1[nH]cc(F)c(=O)[nH]1 [5-FU, fluorouracil, reference compound]",no significant decrease,significant decrease,,
"O=C1[O][Pt]2([NH][C@@H]3CCCC[C@H]3[NH]2)[O]C1=O [oxaliplatin, reference compound]",,no significant decrease,no significant decrease,no significant decrease
